Molecular target: T1, HIV-1 RT (Human immunodeficiency virus type 1 group M subtype B, UniProt P03366)
T1 construct: HIV-1 RT assay was carried out in 96-well Millipore MultiScreen MADVNOB50 plates using purified recombinant enzyme
Test: HIV Reverse Transcriptase Assay: Inhibitor IC50 Determination
Assay type: biochemical
Settings: purified recombinant enzyme, poly(rA)/oligo(dT)16 template-primer, 4 nM HIV-1 RT, 37° C. for 30 min, 10% DMSO; read-out: RT inhibition IC50
Description: HIV Reverse Transcriptase Assay: Inhibitor IC50 Determination
HIV-1 RT assay was carried out in 96-well Millipore MultiScreen MADVNOB50 plates using purified recombinant enzyme and a poly(rA)/oligo(dT)16 template-primer in a total volume of 50 μL. The assay constituents were 50 mM Tris/HCl 50 mM NaCl, 1 mM EDTA, 6 mM MgCl2, 5 μM dTTP, 0.15 μCi [^3H] dTTP, 5 μg/ml poly (rA) pre annealed to 2.5 μg/ml oligo (dT)16 and a range of inhibitor concentrations in a final concentration of 10% DMSO. Reactions were initiated by adding 4 nM HIV-1 RT and after incubation at 37° C. for 30 min, they were stopped by the addition of 50 μl ice cold 20% TCA and allowed to precipitate at 4° C. for 30 min. The precipitates were collected by applying vacuum to the plate and sequentially washing with 3×200 μl of 10% TCA and 2×200 μl 70% ethanol. Finally, the plates were dried and radioactivity counted in a Packard TopCounter after the addition of 25 μl scintillation fluid per well. IC50's, were calculated by plotting % inhibition versus log10 inhibitor concentrations.

## O=c1ccc(Cc2ccc(Cl)c(Oc3cc(Cl)ccc3Br)c2)n[nH]1 [I-77, 6-[3-(2-Bromo-5-chloro-phenoxy)-4-chloro-benzyl]-2H-pyridazin-3-one]
  IC50: 24.2 nM

## CCc1ccc(Cc2cc(C)c(=O)[nH]n2)cc1Oc1cc(Cl)cc(C#N)c1 [I-98, 3-Chloro-5-[2-ethyl-5-(5-methyl-6-oxo-1,6-dihydro-pyridazin-3-ylmethyl)-phenoxy]-benzonitrile]
  IC50: 19.4 nM

## CCc1ccc(Cc2ccc(=O)[nH]n2)cc1Oc1cc(C)cc(C#N)c1 [I-100, 3-[2-Ethyl-5-(6-oxo-1,6-dihydro-ridazin-3-ylmethyl)-phenoxy]-5-methyl-nzonitrile]
  IC50: 24.1 nM

## O=c1ccc(Cc2ccc(Cl)c(Oc3cc(Cl)ccc3Cl)c2)n[nH]1 [I-102, 6-[4-Chloro-3-(2,5-dichloro-phenoxy)-benzyl]-2H-pyridazin-3-one]
  IC50: 20.6 nM

## Cc1cc(Cc2ccc(Cl)c(Oc3cc(Cl)ccc3Br)c2)n[nH]c1=O [I-103, 6-[3-(2-Bromo-5-chloro-phenoxy)-4-chloro-benzyl]-4-methyl-2H-pyridazin-3-one]
  IC50: 9.35 nM

## Cc1cc(Cc2ccc(Cl)c(Oc3cc(Cl)cc(C#N)c3)c2)n[nH]c1=O [I-108, 3-Chloro-5-[2-chloro-5-(5-methyl-6-oxo-1,6-dihydro-pyridazin-3-ylmethyl)-phenoxy]-benzonitrile]
  IC50: 11.1 nM

## CCc1ccc(Cc2cc(C)c(=O)[nH]n2)cc1Oc1cc(C)cc(C#N)c1 [I-109, 3-[2-Ethyl-5-(5-methyl-6-oxo-1,6-dihydro-yridazin-3-ylmethyl)-phenoxy]-5-methyl-benzonitrile]
  IC50: 21.6 nM

## Cc1ccc(Cl)cc1Oc1cc(Cc2cc(C)c(=O)[nH]n2)ccc1Cl [I-123, 6-[4-Chloro-3-(5-chloro-2-methyl-phenoxy)-benzyl]-4-methyl-2H-pyridazin-3-one]
  IC50: 23.1 nM

## Cc1cc(Cc2ccc(Cl)c(Oc3cc(C#N)cc(C#N)c3)c2)n[nH]c1=O [I-135, 5-[2-Chloro-5-(5-methyl-6-oxo-1,6-dihydro-pyridazin-3-ylmethyl)-phenoxy]-isophthalonitrile]
  IC50: 12.5 nM

## O=c1ccc(Cc2ccc(Cl)c(Oc3cc(Cl)ccc3Br)c2F)n[nH]1 [I-136, 6-[3-(2-Bromo-5-chloro-phenoxy)-4-chloro-2-fluoro-benzyl]-2H-pyridazin-3-one]
  IC50: 8 nM

## O=c1ccc(Cc2cc(Oc3cc(Br)cc(Br)c3)c3occc3c2)n[nH]1 [I-142, 6-[7-(3,5-Dibromo-phenoxy)-benzofuran-5-ylmethyl]-2H-pyridazin-3-one]
  IC50: 15 nM

## CCc1ccc(Cc2ccc(=O)[nH]n2)c(F)c1Oc1cc(Cl)cc(C#N)c1 [I-224, 3-Chloro-5-[6-ethyl-2-fluoro-3-(6-oxo-1,6-dihydro-pyridazin-3-ylmethyl)-phenoxy]-benzonitrile]
  IC50: 18 nM

## Cc1cc(Cc2ccc(Cl)c(Oc3cc(C#N)cc(C(F)F)c3)c2F)n[nH]c1=O [I-237, 3-[6-Chloro-2-fluoro-3-(5-methyl-6-oxo-1,6-dihydro-pyridazin-3-ylmethyl)-phenoxy]-5-difluoromethyl-benzonitrile]
  IC50: 12.8 nM
